Measured values published in patent US6528516B1, “Methods for reducing intraocular pressure using A3 adenosine receptor antagonists” (Trustees of the University of Pennsylvania, The Center for …, priority 1998, dated 2003).
Entries after “also recorded” stand apart in the source; their conditions may differ.

Columns and labels:
[1] = test system: HCE (human ciliary epithelial) cell line, NPE cells; experiment: Cell volume (shrinkage) of NPE cells in isosmotic solution, Coulter Counter, 5 μM gramicidin; assay type: cell-based; settings: for effect of A3 antagonist on shrinkage triggered by 3 μM CGS-21680: 100 nM MRS-1191 preincubation; for effect of A3 antagonist on adenosine-stimulated isotonic shrinkage: 300 nM MRS-1097, 100 nM MRS-1191, 100 nM MRS-1523, 10 μM adenosine; for effect of A3 antagonist on IB-MECA-stimulated isotonic shrinkage: 2 min preincubation, MRS-1097 300 nM, MRS-1191 100 nM, 100 nM IB-MECA
Procedure: A 0.5-ml aliquot of the HCE cell suspension in DMEM was added to 20 ml of each test solution, which contained (in mM): 110.0 NaCl, 15.0HEPES [4-(2-hydroxyethyl)-1-piperazineethanesulfonic acid], 2.5 CaCl2, 1.2 MgCl2, 4.7 KCl, 1.2 KH2PO4, 30.0 NaHCO3, and 10.0 glucose, at a pH of 7.4 and osmolality of 298-305 mOsm. Parallel aliquots of cells were studied on the same day. One aliquot usually served as a control, and the others were exposed to different experimental conditions at the time of suspension. The same amount of solvent vehicle (dimethylformamide, DMSO or ethanol) was always added to the control and experimental aliquots. The sequence of studying the suspensions was varied to preclude systematic time-dependent artifacts (Civan et al., Exp. Eye Res. 54:181-191, 1992).
Cell volumes of isosmotic suspensions were measured with a Coulter Counter (model ZBI-Channelyzer II), using a 100-μm aperture (Civan et al., supra., 1994). As previously described (Wax et al., supra., 1993), the cell volume (vC) of the suspension was taken as the peak of the distribution function. Cell shrinkage was fit as a function of time (t) to a monoexponential function:
vC=v∞+(v0−v∞)−[e^−(t−t^0^)/τ] {1}
where v∞ is the steady-state cell volume, v0 is the cell volume at the first point (t0) of the time course to be fit, and τ is the time constant of the shrinkage. For purposes of data reduction, the data were normalized to the first time point, taken to be 100% isotonic volume. Fits were obtained by nonlinear least-squares regression analysis, permitting both v∞and τ to be variables.
In order to differentiate among these receptors, the experiments were repeated in the present study using a series of agonists and antagonists selective for these receptors. As we wished to identify the effects of these receptors specifically on Cl^− channels, 5 μM gramicidin D was included in all solutions to eliminate any potential contribution from K^+ channels. This ionophore readily partitions into plasma membranes to form a cation-selective pore, and is widely used for studying volume regulation (Hoffmann et al., in Interaction of Cell Volume and Cell Function, Lang et al., eds., Springer, Heidelberg, Germany, pp. 188-248, (ACEP Series 14), 1993)). Under these conditions, release of cell Cl^− becomes the rate-limiting factor in both hypo-(Civan et al., Exp. Eye Res. 54:181-191, 1992) and isoosmotic cell shrinkage (Carre et al., supra., 1997).

human A2 receptors = settings: read-out: Ki for binding to human A2 receptors; cited from earlier work
[2] = biological target: T1, recombinant human A2B receptors (Homo sapiens, UniProt P29275); experiment: Radioligand binding to recombinant human A2B receptors; settings: at 10 μM
T1 sequence (P29275 1-332): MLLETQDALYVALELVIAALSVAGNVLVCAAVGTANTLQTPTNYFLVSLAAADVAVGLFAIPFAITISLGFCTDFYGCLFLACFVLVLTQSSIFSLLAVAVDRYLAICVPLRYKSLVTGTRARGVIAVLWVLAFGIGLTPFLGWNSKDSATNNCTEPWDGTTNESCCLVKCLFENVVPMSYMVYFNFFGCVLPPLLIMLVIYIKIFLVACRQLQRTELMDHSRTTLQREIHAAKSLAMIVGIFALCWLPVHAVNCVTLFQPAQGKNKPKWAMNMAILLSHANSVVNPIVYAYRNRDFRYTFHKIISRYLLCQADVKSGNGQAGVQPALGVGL

A1 and A2A receptors = experiment: Estimated occupancy of A1 and A2A receptors at the concentrations used; settings: at the concentrations used (300 nM MRS 1097, 100 nM MRS 1191, 100 nM MRS 1523)
A1 receptors = biological target: T2, A1 receptors (Rattus norvegicus, UniProt P25099); experiment: Radioligand binding, [3H]R-PIA, rat cerebral cortex membranes
T2 construct: A1 receptors from rat cerebral cortex membranes; from tissue; host or cells: rat cerebral cortex membranes
T2 sequence (P25099 1-326): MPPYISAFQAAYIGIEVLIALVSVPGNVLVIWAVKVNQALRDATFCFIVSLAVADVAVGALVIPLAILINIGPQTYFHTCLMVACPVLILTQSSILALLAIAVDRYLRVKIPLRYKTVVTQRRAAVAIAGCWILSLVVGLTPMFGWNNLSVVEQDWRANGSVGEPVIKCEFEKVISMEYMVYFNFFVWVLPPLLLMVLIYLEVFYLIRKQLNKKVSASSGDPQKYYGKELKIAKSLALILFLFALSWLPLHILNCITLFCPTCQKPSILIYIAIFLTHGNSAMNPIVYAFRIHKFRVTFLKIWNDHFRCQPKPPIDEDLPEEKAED
Procedure: (§1) Radioligand binding studies. Binding of [^3H]R-N^6-phenylisopropyladenosine ([^3H]R-PIA) to A1 receptors from rat cerebral cortex membranes and of [^3H]-2-[4-[(2-carboxyethyl)phenyl]ethylamino]-5′-N-ethylcarbamoyladenosine ([^3H]CGS 21680) to A2A receptors from rat striatal membranes was performed as described previously (Schwabe et al., Naunyn Schmiedeberg Arch. Pharmacol. 313:179-187, 1980; Jarvis et al., J. Pharmacol. Exp. Ther. 251:888-893, 1989) Adenosine deaminase (3 units/mL) was present during the preparation of the brain membranes, in a pre-incubation of 30 min at 30° C., and during the incubation with the radioligands. Nonspecific binding was determined in the presence of 10 μM (A1 receptors) or 20 μM (A2A receptors)2-chloroadenosine.
(§2) All non-radioactive compounds were initially dissolved in DMSO, and diluted with buffer to the final concentration, where the amount of DMSO never exceeded 1%. Incubations were terminated by rapid filtration over Whatman GF/B filters, using a Brandell cell harvester (Brandell, Gaithersburg, MD). The tubes were rinsed three times with 3 mL buffer each.
(§3) At least five different concentrations of competitor, spanning 3 orders of magnitude adjusted appropriately for the IC50 of each compound, were used.

human A3 receptor = biological target: T3, human A3 receptor (Homo sapiens, UniProt P0DMS8); experiment: Radioligand binding, [125I]AB-MECA, HEK-293 cell membranes; set-up: host or cells: HEK-293; settings: read-out: Ki(hA3)
T3 sequence (P0DMS8 1-318): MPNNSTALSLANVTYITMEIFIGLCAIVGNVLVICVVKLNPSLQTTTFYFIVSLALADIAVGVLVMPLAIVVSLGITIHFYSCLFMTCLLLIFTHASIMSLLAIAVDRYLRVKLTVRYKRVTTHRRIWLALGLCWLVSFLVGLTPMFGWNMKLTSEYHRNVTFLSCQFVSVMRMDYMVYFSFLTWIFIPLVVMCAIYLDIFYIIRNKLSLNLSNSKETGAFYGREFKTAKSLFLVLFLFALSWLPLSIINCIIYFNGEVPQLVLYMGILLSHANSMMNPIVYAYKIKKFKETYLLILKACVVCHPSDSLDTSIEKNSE
Procedure: Natl. Acad. Sci. […] Natl. Acad. Sci. U.S.A. 89:7432-7436, 1992) was performed as described at 4° C. (Olah et al., Mol. Pharmacol. 45:978-982, 1994). The assay medium consisted of a buffer containing 10 mM Mg^2+, 50 mM Tris, 3 units/mL adenosine deaminase, and 1 mM EDTA, at pH 8.0 (4° C.). […] Incubations were terminated by rapid filtration over Whatman GF/B filters, using a Brandell cell harvester (Brandell, Gaithersburg, MD). The tubes were rinsed three times with 3 mL buffer each. At least five different concentrations of competitor, spanning 3 orders of magnitude adjusted appropriately for the IC50 of each compound, were used. IC50 values, calculated with the nonlinear regression method implemented in the InPlot program (Graph-PAD, San Diego, Calif.), were converted to apparent Ki values using the Cheng-Prusoff equation (Cheng et al., Biochem.

[3] = Oxidation of 1-methyl-1,4-dihydropyridine in rat brain homogenate; assay type: in vitro ADME; settings: rat brain homogenate supernatant, pH 7.4, 37 C, read-out: t½ of oxidation to pyridinium salt 11
Procedure: The rat brain homogenate was prepared by the following method. One rat ([…]) was killed and the brain (weighing 2.26 g) was removed, and homogenized in 12 mL PBS (Biofluids, Inc., 1×pH 7.4). The homogenate was centrifuged at 12,000×rpm, and the supernatant was used. 5 mg of 24 dissolved in 0.2 mL of DMSO was mixed with 10 mL of brain homogenate (initial concentration of 1.27 mM), which was previously equilibrated to 37° C. in a water bath incubator, and shaking was continued at that temperature. Aliquots of 500 μL were withdrawn at 2, 4, 8, 16, 32, 64, 128, 256, 768 min (2×each) from the test medium, added immediately to 3 mL of ice-cold ethyl ether, shaken vigorously, and placed in a freezer. When all samples had been collected, and the ether layer of each sample was separated. After evaporation of the ether, each residue was dissolved in 200 μL methanol, filtered through Whatman 1 filter paper and analyzed by HPLC.
Pyridinium salt 11 could be generated through oxidation of the corresponding reduced precursor, 1-methyl-2,4-diethyl-3-(ethylsulfanylcarbonyl)-5-ethyloxycarbonyl-6-phenyl-1,4-dihydropyridine, 24. The conversion of 24 to 11 by chemical means (iodine in nitromethane) and during incubation at 37 C with rat brain membranes, to simulate in vivo conditions, was studied. The chemical conversion occurred readily, and the time course of the biochemical oxidation was recorded . […]

A2A receptors = biological target: T4, A2A receptors (Rattus norvegicus, UniProt P30543); experiment: Radioligand binding, [3H]CGS 21680, rat striatal membranes; settings: at 100 μM
T4 construct: to A2A receptors from rat striatal membranes; from tissue; host or cells: rat striatal membranes
Procedure: as §1, §2, §3

T4 sequence (P30543 whole entry): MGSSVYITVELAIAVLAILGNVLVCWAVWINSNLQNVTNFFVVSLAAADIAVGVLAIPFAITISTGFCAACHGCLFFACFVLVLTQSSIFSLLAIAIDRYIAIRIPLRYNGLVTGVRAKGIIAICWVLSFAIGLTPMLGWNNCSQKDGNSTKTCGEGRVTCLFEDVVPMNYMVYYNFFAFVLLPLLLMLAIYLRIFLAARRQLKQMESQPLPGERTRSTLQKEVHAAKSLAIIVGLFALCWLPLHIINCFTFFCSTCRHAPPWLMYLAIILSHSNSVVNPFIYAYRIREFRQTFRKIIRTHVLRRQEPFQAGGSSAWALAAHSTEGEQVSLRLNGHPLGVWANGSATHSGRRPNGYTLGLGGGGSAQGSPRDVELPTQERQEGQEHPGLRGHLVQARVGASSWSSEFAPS

displacement of radioligand binding to recombinant human A2B receptors [2] | share of the A1 and A2A receptors that could have been occupied (A1 and A2A receptors) | Ki (A1 receptors) | Ki (human A3 receptor) | half-life at 1.27 mM [3] | percent displacement of specific radioligand binding at rat A2A receptors (A2A receptors) | Compound | effect of A3 antagonist on shrinkage triggered by 3 μM CGS-21680 [1] | effect of A3 antagonist on shrinkage triggered by 3 μM CGS-21680 ([1]; listed as MRS 1191) | effect on cell volume in the absence of IB-MECA ([1]; 100 nM antagonist alone) | effect of A3 antagonist on adenosine-stimulated isotonic shrinkage [1] | effect of A3 antagonist on adenosine-stimulated isotonic shrinkage ([1]; listed as MRS 1191) | effect of A3 antagonist on IB-MECA-stimulated isotonic shrinkage [1] | effect of A3 antagonist on IB-MECA-stimulated isotonic shrinkage ([1]; listed as MRS 1191) | Ki (human A2 receptors) | effect of A3 antagonist on adenosine-stimulated isotonic shrinkage ([1]; listed as MRS 1097) | effect of A3 antagonist on IB-MECA-stimulated isotonic shrinkage ([1]; listed as MRS 1097)
did not displace radioligand binding |  |  |  |  |  | CCOC(=O)C1=C(C)NC(c2ccccc2)=C(C(=O)OCc2ccccc2)C1C#Cc1ccccc1 (racemic) [MRS-1191, 3-ethyl 5-benzyl-2-methyl-6-phenyl-4-phenylethynyl-1,4-(±)-dihydropyridine-3,5-dicarboxylate] | abolished this effect; also recorded: blocked | prevented this shrinkage | did not affect cell volume | prevented the characteristic shrinkage | blocked the shrinkage | prevented characteristic shrinkage | prevent the shrinkage | > 100 µM |  | 
 | < 20% |  |  |  |  | 3-ethyl 5-benzyl-2-methyl-6-phenyl-4-styryl-1,4-(±)-dihydropyridine-3,5-dicarboxylate [MRS-1097] |  |  |  | prevented the characteristic shrinkage |  | prevented shrinkage |  | 4.77 µM | blocked the shrinkage | blocked the isoomotic shrinkage; also recorded: prevented the subsequent response; also recorded: prevent the shrinkage
 |  | 28.4 ± 2.5 µM | 0.379 ± 0.122 µM | ~47 min | 48±7% | CCOC(=O)C1=C(c2ccccc2)N(C)C(CC)=C(C(=O)SCC)C1CC (stereo not shown) [Compound 24, 1-Methyl-2,4-diethyl-3-(ethylsulfanylcarbonyl)5-ethyloxycarbonyl-6-phenyl-1,4-dihydropyridine] |  |  |  |  |  |  |  |  |  | 
